# Data: the supplement of paper PMC10307832
# Experiments:
# Assay in all cases: relative viability (nuclei count vs DMSO), 5 days (fraction); higher = more cells survive
# Doramapimod + Pictilisib = compound: Cc1ccc(-n2nc(C(C)(C)C)cc2NC(=O)Nc2ccc(OCCN3CCOCC3)c3ccccc23)cc1 [Doramapimod] + CS(=O)(=O)N1CCN(Cc2cc3nc(-c4cccc5[nH]ncc45)nc(N4CCOCC4)c3s2)CC1 [Pictilisib] (partner 1 µM)
# Summary of the method: (§1)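 Lung cancer cell lines, seeded in 1536-well plates, were treated the following day by pin tool with a single drug or with five library-drug doses (not always all listed) in √10 steps on top of a fixed anchor-drug dose. Cells were fixed and nuclei stained in one step after 5 days, and nuclei were counted. Relative viability is the nuclei count for treated wells divided by that for vehicle wells, reported as medians of duplicate plates.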
# Doramapimod + Vorinostat = compound: Cc1ccc(-n2nc(C(C)(C)C)cc2NC(=O)Nc2ccc(OCCN3CCOCC3)c3ccccc23)cc1 [Doramapimod] + O=C(CCCCCCC(=O)Nc1ccccc1)NO [Vorinostat] (partner 1 µM)
# Summary of the method: as §1
# RAF265 + Decitabine = compound: Cn1c(Nc2ccc(C(F)(F)F)cc2)nc2cc(Oc3ccnc(-c4ncc(C(F)(F)F)[nH]4)c3)ccc21 [RAF265] + Nc1ncn([C@H]2C[C@H](O)[C@@H](CO)O2)c(=O)n1 [Decitabine] (partner 2 µM)
# Summary of the method: as §1
# IPA-3 + Olaparib = compound: C1=CC=C2C(=C1)C=CC(=C2SSC3=C(C=CC4=CC=CC=C43)O)O [IPA-3] + O=C(c1cc(Cc2n[nH]c(=O)c3ccccc23)ccc1F)N1CCN(C(=O)C2CC2)CC1 [Olaparib] (partner 8 µM)
# Summary of the method: as §1
cell line,measurement,setting,value
UMC-11,relative viability,Doramapimod + Pictilisib; first compound 0.02 µM,0.726
same,relative viability,Doramapimod + Pictilisib; first compound 0.06325 µM,0.759
same,relative viability,Doramapimod + Pictilisib; first compound 0.2 µM,0.726
same,relative viability,Doramapimod + Pictilisib; first compound 0.6325 µM,0.547
same,relative viability,Doramapimod + Pictilisib; first compound 2 µM,0.615
same,relative viability,Doramapimod + Vorinostat; first compound 0.02 µM,0.371
same,relative viability,Doramapimod + Vorinostat; first compound 0.06325 µM,0.33
same,relative viability,Doramapimod + Vorinostat; first compound 0.2 µM,0.423
same,relative viability,Doramapimod + Vorinostat; first compound 0.6325 µM,0.316
same,relative viability,Doramapimod + Vorinostat; first compound 2 µM,0.379
same,relative viability,RAF265 + Decitabine; first compound 0.01 µM,0.621
same,relative viability,RAF265 + Decitabine; first compound 0.03162 µM,0.404
same,relative viability,RAF265 + Decitabine; first compound 0.1 µM,0.621
same,relative viability,RAF265 + Decitabine; first compound 0.3162 µM,0.604
same,relative viability,RAF265 + Decitabine; first compound 1 µM,0.363
same,relative viability,IPA-3 + Olaparib; first compound 0.2 µM,1.06
same,relative viability,IPA-3 + Olaparib; first compound 0.6325 µM,0.459
same,relative viability,IPA-3 + Olaparib; first compound 2 µM,0.338
same,relative viability,IPA-3 + Olaparib; first compound 6.325 µM,0.361
same,relative viability,IPA-3 + Olaparib; first compound 20 µM,0.384
